Laboratory results published in patent publication US20030125349A1, “Medicament containing cilansetron for the treatment of non-obstipative male irritable bowel syndrome patients” (Solvay Pharmaceuticals GmbH, priority 2000, published 2003).

Key:
[1] = system: non-obstipative IBS patients; experiment: 12-week placebo-controlled clinical double-blind study, adequate alleviation of IBS symptoms; assay type: in vivo, human; conditions: for Final success rate: all patients (471; both sexes); for Success rate (responder rate, adequate alleviation of IBS symptoms): provisional result (454 patients)
Source text: The effect of cilansetron on non-obstipative IBS patients of both sexes was investigated in a 12-week placebo-controlled clinical double-blind study with randomized selection and parallel test groups. […] Likewise, those patients were included in the study who responded “No” to the question about pain/feeling of unwellness in the lower abdomen only in ≦50% of the cases or who judged their pain/feeling of unwellness in the lower abdomen as “restrictive” for <2 times over a two-week observation period. Cilansetron was used in doses of 1, 2, 8 and 16 mg. The patients were checked weekly for “adequate alleviation” (=primary effectiveness parameter) of their IBS symptoms (stomach pains such as pains in the abdomen, abnormal bowel activity). Stomach pains such as pains in the abdomen, nature of the stools and stool frequency were rated daily by the patients (=secondary effectiveness parameter). In a provisional result of the double-blind study, the data of a total of 454 patients (297 female patients and 157 male patients) were evaluated and plotted in the table below. Corresponding to the criteria on which the clinical double-blind study was based, in both patient subgroups of male IBS patients and female IBS patients the success rates relating to the “adequate alleviation” of the IBS symptoms as set forth in the table below were noted: The “primary effectiveness parameter” corresponds to the success rate (=“responder rate”) to the question, which was put weekly to the patients, as to whether they had experienced “adequate alleviation” of their IBS symptoms (pain/feeling of unwellness in the lower abdomen, abnormal bowel activity) during the course of the previous week. A “responder” is regarded as a patient who was treated for at least four weeks and who responded “Yes” to the question posed of whether “adequate alleviation” of his/her IBS symptoms had occurred for at least half of his/her treatment period. At the end of the double-blind study, the data of a total of 471 patients (308 female patients and 163 male patients) were evaluated. The final success rates were 40% for the placebo group, 62% for the dose 1 mg cilansetron (TID), 53% for the dose 2 mg cilansetron (TID), 55% for the dose 8 mg cilansetron (TID) and 63% for the dose 16 mg cilansetron (TID).

[2] = system: non-obstipative IBS patients; conditions: clinical tests, WO 99/17755, cited from earlier work

| SMILES | Final success rate ([1]; 1 mg TID, end of study) | Final success rate ([1]; 2 mg TID, end of study) | Final success rate ([1]; 8 mg TID, end of study) | Final success rate ([1]; 16 mg TID, end of study) | Response to treatment of non-obstipative IBS patients of both sexes ([1]; doses 1, 2, 8 and 16 mg) | Final success rates, male compared with female patient groups ([1]; end of study, greatest differences at 1 mg TID) | Success rate (responder rate, adequate alleviation of IBS symptoms) ([1]; female patients, 1 mg TID) | Success rate (responder rate, adequate alleviation of IBS symptoms) ([1]; female patients, 2 mg TID) | Success rate (responder rate, adequate alleviation of IBS symptoms) ([1]; female patients, 8 mg TID) | Success rate (responder rate, adequate alleviation of IBS symptoms) ([1]; female patients, 16 mg TID) | Success rate (responder rate, adequate alleviation of IBS symptoms) ([1]; male patients, 1 mg TID) | Success rate (responder rate, adequate alleviation of IBS symptoms) ([1]; male patients, 2 mg TID) | Success rate (responder rate, adequate alleviation of IBS symptoms) ([1]; male patients, 8 mg TID) | Success rate (responder rate, adequate alleviation of IBS symptoms) ([1]; male patients, 16 mg TID) | Effectiveness on female IBS patients compared with male IBS patients [2] | Improvement in condition compared with the placebo group ([2]; male test subjects) |
| --- | --- | --- | --- | --- | --- | --- | --- | --- | --- | --- | --- | --- | --- | --- | --- | --- |
| Cc1nccn1C[C@H]1CCc2c(c3cccc4c3n2CCC4)C1=O [Cilansetron, (R)-(−)-4,5,6,8,9,10-hexahydro-10-[(2-methyl-1H-imidazol-1-yl)methyl]-11H-pyrido-[3,2,1-jk]-carbazol-11-one] | 62% | 53% | 55% | 63% | respond to the treatment with cilansetron in all the dosages investigated | very similar for the male and female patient groups | 69.6% | 60.3% | 56.9% | 61.4% | 51.3% | 63.0% | 56.3% | 58.6% |  |  |
| Cc1[nH]cnc1CN1CCc2c(c3ccccc3n2C)C1=O [alosetron] |  |  |  |  |  |  |  |  |  |  |  |  |  |  | significantly better effectiveness on female IBS patients | no significant improvement in condition compared with the placebo group |
